Results as given in patent US8633315B2, “Substituted hydroxyethyl amine compounds as beta-secretase modulators and methods of use” (Amgen Inc., priority 2007, dated 2014).

Target: BACE1 (Homo sapiens, UniProt P56817)
Experiment: In vitro enzymatic BACE FRET (fluorescence resonance energy transfer) assay
Assay type: biochemical
Protocol: In Vitro Enzymatic BACE FRET (Fluorescence Resonance Energy Transfer) Assay (Enzyme Assay Data in Table 1)
The assay buffer used in this screen is 0.05 M acetate, pH 4.2, 10% DMSO final, 100 uM genapol (which is a nonionic detergent, below its Critical Micelle Concentration). […] The assay is effectively started by the addition of FRET substrate (50 nM) and the combination is incubated for one hour. The FRET assay is terminated with by addition of Tris buffer, which raises the pH to neutrality, and the fluorescence is determined. The FRET substrate is a peptide with commercially available fluorophore and quencher, on opposite sides of the BACE cleavage site. Proteolytic cleavage of the FRET substrate releases quenching of fluorescence (excitation […] and emission […]).

Chain of BACE1 (P56817 46-501, species assumed): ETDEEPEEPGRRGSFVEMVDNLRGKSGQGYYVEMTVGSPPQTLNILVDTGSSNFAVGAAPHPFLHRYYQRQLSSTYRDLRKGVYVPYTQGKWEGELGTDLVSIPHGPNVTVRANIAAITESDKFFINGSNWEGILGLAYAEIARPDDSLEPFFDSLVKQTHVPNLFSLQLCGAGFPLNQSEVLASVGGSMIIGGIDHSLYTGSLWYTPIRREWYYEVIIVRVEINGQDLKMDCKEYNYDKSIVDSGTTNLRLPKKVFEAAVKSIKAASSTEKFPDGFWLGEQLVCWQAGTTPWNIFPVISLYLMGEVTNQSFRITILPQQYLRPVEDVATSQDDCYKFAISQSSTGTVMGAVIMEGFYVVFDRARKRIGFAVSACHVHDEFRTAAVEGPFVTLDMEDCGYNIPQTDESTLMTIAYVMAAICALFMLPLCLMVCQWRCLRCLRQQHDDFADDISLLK

IC50	SMILES
177 nM	C=CC[C@H](NC(=O)COC)[C@H](O)CN[C@H]1CC2(CCC2)Oc2ncc(C[C@H](C)C(F)(F)F)cc21 [Example 123, N-((1S)-1-((1R)-1-hydroxy-2-(((4′S)-6′-((2S)-3,3,3-trifluoro-2-methylpropyl)-3′,4′-dihydrospiro[cyclobutane-1,2′-pyrano[2,3-b]pyridin]-4′-yl)amino)ethyl)-3-buten-1-yl)-2-(methyloxy)acetamide]
212 nM	C=CC[C@H](NC(C)=O)[C@H](O)CN[C@H]1CC2(CCC2)Oc2ccc(CC(C)(C)C)cc21 [Example 33, N-((1S)-1-((1R)-2-(((4S)-6-(2,2-dimethylpropyl)-3,4-dihydrospiro[chromene-2,1′-cyclobutan]-4-yl)amino)-1-hydroxyethyl)-3-buten-1-yl)acetamide]
302 nM	C=CCC(NC(=O)COC)C(O)CNC1CC2(CC(C#N)C2)Oc2ncc(CC(C)(C)C)cc21 [Example 113, N-((1S)-1-((1R)-2-(((1r,3S,4′S)-3-cyano-6′-(2,2-dimethylpropyl)-3′,4′-dihydrospiro[cyclobutane-1,2′-pyrano[2,3-b]pyridin]-4′-yl)amino)-1-hydroxyethyl)-3-buten-1-yl)-2-(methyloxy)acetamide]
8220 nM	C=CC[C@H](NC(C)=O)[C@H](O)CN[C@H]1C[C@@]2(CC[C@@H]2O)Oc2ncc(CC(C)(C)C)cc21 [Example 53, N-((1S)-1-((1R)-2-(((1R,2S,4′S)-6′-(2,2-dimethylpropyl)-2-hydroxy-3′,4′-dihydrospiro[cyclobutane-1,2′-pyrano[2,3-b]pyridin]-4′-yl)amino)-1-hydroxyethyl)-3-buten-1-yl)acetamide]
378 nM	C=CCC(NC(C)=O)C(O)CNC1CC2(CC(C#N)C2)Oc2ncc(CC(C)(C)C)cc21 [Example 114, N-((1S)-1-((1R)-2-(((1r,3S,4′S)-3-cyano-6′-(2,2-dimethylpropyl)-3′,4′-dihydrospiro[cyclobutane-1,2′-pyrano[2,3-b]pyridin]-4′-yl)amino)-1-hydroxyethyl)-3-buten-1-yl)acetamide]
147 nM	C=CC[C@H](NC(=O)COC)[C@H](O)CNC1CC2(CCC2)Oc2ncc(CC(C)C)cc21 (stereo partly drawn) [Example 39, N-((1S)-1-((1R)-1-hydroxy-2-((6′-(2-methylpropyl)-3′,4′-dihydrospiro[cyclobutane-1,2′-pyrano[2,3-b]pyridin]-4′-yl)amino)ethyl)-3-buten-1-yl)-2-(methyloxy)acetamide]
21400 nM	CC(=O)N[C@H]([C@H](O)CN[C@H]1CC2(CCC2)Oc2ncc(CC(C)(C)C)cc21)C(C)(C)C [Example 81, N-((1S)-1-((1R)-2-(((4′S)-6′-(2,2-dimethylpropyl)-3′,4′-dihydrospiro[cyclobutane-1,2′-pyrano[2,3-b]pyridin]-4′-yl)amino)-1-hydroxyethyl)-2,2-dimethylpropyl)acetamide]
322 nM	C=CC[C@H](NC(C)=O)[C@H](O)CN[C@H]1CC2(CCC2)Oc2ncc(C[C@H](C)C(F)(F)F)cc21 [Example 122, N-((1S)-1-((1R)-1-hydroxy-2-(((4′S)-6′-((2S)-3,3,3-trifluoro-2-methylpropyl)-3′,4′-dihydrospiro[cyclobutane-1,2′-pyrano[2,3-b]pyridin]-4′-yl)amino)ethyl)-3-buten-1-yl)acetamide]
61 nM	C=CC[C@H](NC(=O)COC)[C@H](O)CN[C@H]1CC2(CCC2)Oc2ccc(CC(C)(C)C)cc21 [Example 34, N-((1S)-1-((1R)-2-(((4S)-6-(2,2-dimethylpropyl)-3,4-dihydrospiro[chromene-2,1′-cyclobutan]-4-yl)amino)-1-hydroxyethyl)-3-buten-1-yl)-2-(methyloxy)acetamide]
18600 nM	CCC[C@H](NC(C)=O)[C@H](O)CN[C@H]1C[C@@]2(CC[C@@H]2O)Oc2ncc(CC(C)(C)C)cc21 [Example 54, N-((1S)-1-((1R)-2-(((1R,2S,4′S)-6′-(2,2-dimethylpropyl)-2-hydroxy-3′,4′-dihydrospiro[cyclobutane-1,2′-pyrano[2,3-b]pyridin]-4′-yl)amino)-1-hydroxyethyl)butyl)acetamide]
412 nM	C=CC[C@H](NC(=O)COC)[C@H](O)CN[C@H]1CC2(CCC2)Oc2ncc(C[C@@H](C)C(F)(F)F)cc21 [Example 124, N-((1S)-1-((1R)-1-hydroxy-2-(((4′S)-6′-((2R)-3,3,3-trifluoro-2-methylpropyl)-3′,4′-dihydrospiro[cyclobutane-1,2′-pyrano[2,3-b]pyridin]-4′-yl)amino)ethyl)-3-buten-1-yl)-2-(methyloxy)acetamide]
43 nM	C=CC[C@H](NC(=O)c1ccno1)[C@H](O)CN[C@H]1CC2(CCC2)Oc2ncc(CC(C)(C)C)cc21 [Example 93, N-((1S)-1-((1R)-2-(((4′S)-6′-(2,2-dimethylpropyl)-3′,4′-dihydrospiro[cyclobutane-1,2′-pyrano[2,3-b]pyridin]-4′-yl)amino)-1-hydroxyethyl)-3-buten-1-yl)-5-isoxazolecarboxamide]
70 nM	C=CC[C@H](NC(C)=O)[C@H](O)CN[C@H]1C[C@]2(CC[C@H]2O)Oc2ncc(CC(C)(C)C)cc21 [Example 52, N-((1S)-1-((1R)-2-(((1S,2R,4′S)-6′-(2,2-dimethylpropyl)-2-hydroxy-3′,4′-dihydrospiro[cyclobutane-1,2′-pyrano[2,3-b]pyridin]-4′-yl)amino)-1-hydroxyethyl)-3-buten-1-yl)acetamide]
84 nM	C=CC[C@H](NC(=O)[C@H]1CCCO1)[C@H](O)CN[C@H]1CC2(CCC2)Oc2ncc(CC(C)(C)C)cc21 [Example 92, (2R)-N-((1S)-1-((1R)-2-(((4′S)-6′-(2,2-dimethylpropyl)-3′,4′-dihydrospiro[cyclobutane-1,2′-pyrano[2,3-b]pyridin]-4′-yl)amino)-1-hydroxyethyl)-3-buten-1-yl)tetrahydro-2-furancarboxamide]
